The nature of data set [1]: Stability towards deiodination and tissue incorporation after intravenous administration to rabbits. The following applies: rabbit. Format: in vivo, New Zealand white rabbits. The method, then:
The radiolabeled amine compound N-(5-aminopentyl)-5-iodonaphthalenesulfonamide,I-`125 is tested for stability towards deiodination and for tissue incorporation by administering the compound to rabbits.
Two test solutions each of about 0.5 mCi of the above compound (spec. activity of about 1 mCi/mg) in about 1.45 ml of a physiological saline solution are prepared. A test solution is then intravenously administered to two New Zealand white rabbits, each weighing about 3 kg.
A blood sample is then taken from each rabbit at 12, 24, 36 and 72 hour periods after administration. The radioactivity of about 1 g of blood from samples for each time period is then measured. The measurements indicate that the radioactivity in the blood decreases slowly and that at about 72 hours after administration, about 20% of the initial radioactivity is still present in the blood. Due to the relatively slow disappearance of the subject compound from the bloodstream, the compound is therefore available in the bloodstream for a prolonged period of time which thereby increases its suitability to become incorporated into an occurring thrombus.
At the end of the 72 hour period, the rabbits are sacrificed and thereafter, the thyroid, liver, kidneys, lung, stomach wall, parotid glands, brains, muscle and bone tissue are removed and portions are measured for radioactivity. The thyroid contains only about 0.05% of the injected dose per gram which thereby indicates the stability of the subject compound towards deiodination. […] The liver contains about 0.04% and the gall bladder contains about 0.1% of the injected dose while the kidneys and the urine both contain about 0.3% of the dose.

The next data set has as its system fibrin. Description: Incorporation of the radiolabeled compound into a fibrin clot (human fibrinogen, Factor XIII, human thrombin). The class given is biochemical. As to conditions: incubated about three and a half hours at about 37° C.; clot washed three times. Here is the method:
The radiolabeled amine compound N-(5-aminopentyl)-5-iodonaphthalenesulfonamide,I-125 is tested for its ability to be incorporated into fibrin.
The following solutions are mixed in a polystyrene test tube; (a) about 1 ml of a solution containing about 5 mg/ml of human fibrinogen (about 1.5×10^-5 M) and a tris-HCl buffer in a concentration of about 5×10^-3 M, the solution having a pH of about 7.4, (b) about 0.1 ml of a saline solution containing about 4×10^-2 units of blood Factor XIII, (c) about 0.1 ml of a 0.05 M cysteine solution having a pH of about 7.4, and (d) about 0.1 ml of a solution containing the N-(5-aminopentyl)-5-iodonaphthalenesulfonamide,I-125 compound in a concentration of about 2.3×10^-5 mmole and a radioactivity of about 1 μCi. Thereafter, about 0.2 ml of solution of about 0.05 M tris buffer and about 0.025 M CaCl2 which contains about 10 NIH units of human thrombin and has a pH of about 7.4 is added.
The resultant mixture is then incubated for about three and a half hours at about 37° C. whereupon a fibrin clot is formed. […] The radioactivity of the solution and the clot are then measured in a suitable detection apparatus. From these radioactivity measurements, it is determined that about 15% of the initial radioactivity is incorporated into the fibrin clot.

The next data set concerns blood clot factor XIII. Nature of the data set: In vitro incorporation of the radiolabeled compound in casein by blood clot factor XIII (Km, Lineweaver-Burke plot). The class given is biochemical. Here is the method:
Incorporation of the radiolabeled compound produced in Example I in fibrin by means of the blood clot factor XIII was investigated in vitro in the following manner:
To about 400 ul of a physiolgical salt solution containing 10 units of Factor XIII per ml, the following solutions were successively added; (a) about 500 ul of 0.5 molar solution of cystein in a buffer solution of tris(hydroxymethyl)aminomethane having a pH of 7.4, (b) about 100 ul of a buffer solution of tris (hydroxymethyl) aminomethane having a pH of about 7.4 and in which about 250 units of thrombine per ml had been dissolved, (c) about 1200 ul of a buffer solution of tris(hydroxymethyl) aminomethane, (d) about 50 ul of 0.4 molar solution of calcium chloride in water, and (e) about 200 ul of 5% solution of casein in water. […]
After incubation of the test solutions at about 37° C. for about 15 minutes, the reaction was discontinued by the addition of about 200 ul of a 1 molar solution of monoidoacetic acid which has been brought to a pH of about 7.4 by a sodium hydroxide solution. […] The radioactivity in the high-molecular fraction was then measured to determine if the radiolabeled sulfonamide compound had indeed been incorporated into the casein. […]

Turning to `NCCCCCNS(=O)(=O)c1cccc2c([125I])cccc12` [N-(5-aminopentyl)-5-iodonaphthalenesulfonamide,I-125], in data set [1] (72 hours), the “radioactivity in gall bladder” value was “about 0.1 % of the injected dose”, the radioactivity in kidneys result was “about 0.3 % of the dose”, the radioactivity in liver entry is “about 0.04 % of the injected dose” and the radioactivity in urine entry is “about 0.3 % of the dose”. Further, the “initial radioactivity still present in the blood” value in data set [1] (about 0.5 mCi, about 72 hours after administration) is recorded as “about 20%”. Further, the tissue uptake at 72 h in data set [1] (thyroid, 72 hours, indicates stability towards deiodination, read-out: radioactivity in thyroid) was roughly 0.05 %ID/g. Besides, the “initial radioactivity incorporated into the fibrin clot” value in the data set with fibrin is “about 15%”.

As to `NCCCCCNS(=O)(=O)c1cccc2c([131I])cccc12` [N-(5-aminopentyl)-5-iodonaphthalene-1-sulfonamide-I-131], the “incorporation in casein (in words)” value in the data set on blood clot factor XIII (casein) is “amply sufficient to be incorporated efficiently in casein”. Also, the Km in the data set on blood clot factor XIII (casein as acceptor, 37° C., 15 minutes, pH 7.4, Lineweaver-Burke plot from measured radioactivity) was 250 µM.

The values are drawn from patent publication US4406875A, “Radiolabeled amine compounds and their use” (Byk-Mallinckrodt CIL B.V., priority 1979, dated 1983).
